Data from publication PMC11593465, “Na^+ Translocation Dominates over H^+-Translocation in the Membrane Pyrophosphatase with Dual Transport Specificity” (International Journal of Molecular Sciences, 2024).

T1: Dh-mPPase (H+-translocating mPPase of Desulfitobacterium hafniense) (Desulfitobacterium hafniense, UniProt B8FXV7)
T1 construct: gene hppA; recombinant, expressed in E. coli C41(DE3), in inverted membrane vesicles; homodimer of approx. 70-kDa subunits
T1 sequence (B8FXV7 1-671): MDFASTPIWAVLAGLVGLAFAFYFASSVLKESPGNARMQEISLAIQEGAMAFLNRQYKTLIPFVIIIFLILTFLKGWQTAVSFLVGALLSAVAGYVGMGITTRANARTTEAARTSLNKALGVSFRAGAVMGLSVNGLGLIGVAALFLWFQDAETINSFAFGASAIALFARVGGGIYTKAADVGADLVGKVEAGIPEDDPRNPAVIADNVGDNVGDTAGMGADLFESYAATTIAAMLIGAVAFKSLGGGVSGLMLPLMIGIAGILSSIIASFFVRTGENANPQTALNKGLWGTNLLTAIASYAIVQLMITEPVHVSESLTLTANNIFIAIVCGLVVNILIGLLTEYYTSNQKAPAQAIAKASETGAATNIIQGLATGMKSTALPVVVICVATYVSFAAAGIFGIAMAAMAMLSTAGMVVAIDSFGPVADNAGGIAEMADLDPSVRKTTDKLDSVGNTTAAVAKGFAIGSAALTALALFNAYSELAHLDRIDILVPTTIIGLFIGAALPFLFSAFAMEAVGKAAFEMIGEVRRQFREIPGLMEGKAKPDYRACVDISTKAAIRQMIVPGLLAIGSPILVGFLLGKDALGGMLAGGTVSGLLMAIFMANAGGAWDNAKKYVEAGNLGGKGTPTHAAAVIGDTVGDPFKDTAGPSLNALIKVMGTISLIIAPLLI

B1: Bv-mPPase (Bacteroides vulgatus Na+,H+-translocating mPPase) (Phocaeicola vulgatus ATCC 8482) (protein)
chain: METYLFWIVPIASLLALVLAWYFYKQMMLESEGTPTMEKIASYVRQGAMSYLKQQYKVVGLVFLGLVILFSIMAYGFNLQNPWVPIAFLTGGFFSGLSGFLGMKTATYASARTANAAQHSLNKGLRVAFRSGAVMGLVVVGLGLLDISFWYILLDYCIPTDALNPSAKLCVITTTMLTFGMGASTQALFARVGGGIYTKAADVGADLVGKVEAGIPEDDPRNPATIADNVGDNVGDVAGMGADLYESYCGSILATAALGAAAFIGSDDTVMQFKAVIAPMLIAAVGIVLSIIGIFAVRTKENAGMKELLGSLATGTNLSSVLIVVATFLILWALGLENWVNISFAVVVGLIVGIVIGRSTEYYTSQSYKPTQRLAESGKTGPATVIISGIGLGMVSTTIPVLAVVTGIILSYWLASGFDFANISMGLYGIGIAAVGMLSTLGITLATDAYGPIADNAGGNAEMSGLGKEVRKRTDALDSLGNTTAATGKGFAIGSAALTGLALLASYVEEIRIGLTRLGQTILELPNGITVDVHNASFTDYMLYYDVTLMNPKVLSGMFLGSMMAFLFCGLTMNAVGRAAAHMVEEVRRQFREIKGILTGEAEPDYARCVQISTKGAQREMVFPSLLAIIAPIATGLIFGVPGVIGLLIGGLSSGFVLAIFMANAGGAWDNAKKFIEEGNFGGKGSEVHKATVTGDTVGDPFKDTSGPSLNILIKLMSMVAIVMAGLTVAWSLF
notes: recombinant, expressed in E. coli C41(DE3), in inverted membrane vesicles; homodimer of approx. 70-kDa subunits; EC 7.1.3.1

Assays:
[1] = biological target: T2, Da-mPPase (Na+-translocating mPPase of Desulfuromonas acetoxidans) (Desulfuromonas acetoxidans, UniProt Q1JY39); assay: PPi hydrolysis (continuous Pi assay) and pyranine Na+ transport assay, membrane vesicles; type: biochemical; details: 150 µM PPi, 5 mM MgSO4, 5 mM Na2SO4, 25 mM K2SO4, 100 mM Mops-KOH pH 7.2
T2 construct: gene hppA; recombinant, expressed in E. coli C41(DE3), in inverted membrane vesicles; homodimer of approx. 70-kDa subunits
T2 sequence (Q1JY39 1-668): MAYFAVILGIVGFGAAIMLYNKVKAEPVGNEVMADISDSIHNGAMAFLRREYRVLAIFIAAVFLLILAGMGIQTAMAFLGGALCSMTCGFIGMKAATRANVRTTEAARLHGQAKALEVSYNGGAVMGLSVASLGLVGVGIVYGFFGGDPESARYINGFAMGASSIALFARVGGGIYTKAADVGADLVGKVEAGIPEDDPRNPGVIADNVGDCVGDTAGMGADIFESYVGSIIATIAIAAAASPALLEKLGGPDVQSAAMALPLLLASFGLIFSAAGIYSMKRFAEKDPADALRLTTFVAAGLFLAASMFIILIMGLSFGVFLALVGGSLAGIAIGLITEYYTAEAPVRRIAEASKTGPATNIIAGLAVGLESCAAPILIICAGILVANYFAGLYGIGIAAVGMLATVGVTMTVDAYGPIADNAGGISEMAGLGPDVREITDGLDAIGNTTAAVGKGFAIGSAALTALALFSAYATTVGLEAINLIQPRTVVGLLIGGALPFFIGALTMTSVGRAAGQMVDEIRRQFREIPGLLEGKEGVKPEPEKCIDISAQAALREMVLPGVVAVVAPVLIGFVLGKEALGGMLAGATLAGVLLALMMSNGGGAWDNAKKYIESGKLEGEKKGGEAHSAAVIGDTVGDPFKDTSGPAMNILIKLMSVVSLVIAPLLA

[2] = biological target: T1, Dh-mPPase (H+-translocating mPPase of Desulfitobacterium hafniense); assay: PPi hydrolysis (continuous Pi assay) and pyranine H+ transport assay, membrane vesicles; type: biochemical; details: 150 µM PPi, 5 mM MgSO4, 5 mM Na2SO4, 25 mM K2SO4, 100 mM Mops-KOH pH 7.2
[3] = substrate: O=P(O)(O)OP(=O)(O)O; assay: cells, lysate or membranes; type: biochemical, Phocaeicola vulgatus; details: total PPi, first (stronger) of two sites in the dimer, macroscopic constant, 4.8 mM free Mg2+, 10 mM Na+ (5 mM Na2SO4), 25 mM K2SO4, 100 mM Mops-KOH pH 7.2, 25 °C

| Molecule | PPi hydrolysis (continuous Pi assay) and pyranine Na+ transport assay, membrane [1] | PPi hydrolysis (continuous Pi assay) and pyranine H+ transport assay, membrane v [2] | Km [3] |
| --- | --- | --- | --- |
| O=P(O)(O)OP(=O)(O)O [PPi] | Na^+-translocating Da-mPPase caused monensin-sensitive alkalinization of the vesicle lumen in response to PPi addition | the PPi addition to Dh-mPPase-containing vesicles progressively decreased pyranine fluorescence |  |
| B1 |  |  | 15 ± 1 µM |
